Converted amounts (≈) assume the structure as drawn.
How the values were obtained:
Test in all cases: In vitro assay of antibacterial activity (agar dilution MIC)
Format in all cases: cell-based
[1] = tested on: Staphylococcus aureus 1775; conditions: organism code BB, BHI agar, 35-37° C., 20 to 24 hours
Protocol: (§1) Representative compounds of the present invention were assayed in vitro for antibacterial activity as follows: Twelve petri dishes containing successive aqueous dilutions of the test compound mixed with 10 mL of sterilized Brain Heart Infusion (BHI) agar (Difco 0418-01-5) were prepared. Each plate was inoculated with 1:100 (or 1:10 for slow-growing strains, such as Micrococcus and Streptococcus) dilutions of up to 32 different microorganisms, using a Steers replicator block. The inoculated plates were incubated at 35-37° C. for 20 to 24 hours. In addition, a control plate, using BHI agar containing no test compound, was prepared and incubated at the beginning and end of each test.
(§2) An additional plate containing a compound having known susceptibility patterns for the organisms being tested and belonging to the same antibiotic class as the test compound was also prepared and incubated as a further control, as well as to provide test-to-test comparability. […] After incubation, each plate was visually inspected. The minimum inhibitory concentration (MIC) was defined as the lowest concentration of drug yielding no growth, a slight haze, or sparsely isolated colonies on the inoculum spot as compared to the growth control.

[2] = tested on: Staphylococcus aureus ATCC 6538P; conditions: organism code AA, BHI agar, 35-37° C., 20 to 24 hours
Protocol: as §1, §2

[3] = tested on: Streptococcus pyogenes PIU 2548; conditions: organism code FF, BHI agar, 35-37° C., 20 to 24 hours
Protocol: as §1, §2

[4] = tested on: Streptococcus pneumoniae ATCC 6303; conditions: organism code GG, BHI agar, 35-37° C., 20 to 24 hours
Protocol: as §1, §2

[5] = tested on: Streptococcus pyogenes EES61; conditions: organism code DD, BHI agar, 35-37° C., 20 to 24 hours
Protocol: as §1, §2

[6] = tested on: Haemophilus influenzae DILL AMP R; conditions: organism code CC, BHI agar, 35-37° C., 20 to 24 hours
Protocol: as §1, §2

[7] = tested on: Streptococcus pneumoniae 5649; conditions: organism code JJ, BHI agar, 35-37° C., 20 to 24 hours
Protocol: as §1, §2

[8] = tested on: Streptococcus pneumoniae 5737; conditions: organism code HH, BHI agar, 35-37° C., 20 to 24 hours
Protocol: as §1, §2

[9] = tested on: Streptococcus pyogenes 930; conditions: organism code EE, BHI agar, 35-37° C., 20 to 24 hours
Protocol: as §1, §2

Row | SMILES | MIC [1] [µg/mL] | MIC [2] [µg/mL] | MIC [3] [µg/mL] | MIC [4] [µg/mL] | MIC [5] [µg/mL] | MIC [6] [µg/mL] | MIC [7] [µg/mL] | MIC [8] [µg/mL] | MIC [9] [µg/mL]
1 | CC[C@H]1OC(=O)[C@H](C)[C@@H](O[C@H]2C[C@@](C)(OC)[C@@H](O)[C@H](C)O2)[C@H](C)[C@@H](O[C@@H]2O[C@H](C)C[C@H](N(C)C)[C@H]2O)[C@](C)(O)C[C@@H](C)C(=O)[C@H](C)[C@@H](O)[C@]1(C)O [Ery. A, Erythromycin A, reference compound] | >100 | 0.2 (≈ 0.273 µM) | 32 (≈ 43.6 µM) | 0.06 (≈ 0.0818 µM) | 0.06 (≈ 0.0818 µM) | 4 (≈ 5.45 µM) | 16 (≈ 21.8 µM) | – | –
2 | CCC1OC(=O)C(C)C(=O)C(C)C(OC2OC(C)CC(N(C)C)C2O)C(C)(OCC=Cc2cnc3ccccc3c2)CC(C)C(N)C(C)C(O)C1(C)O (stereo not drawn) [Example 7, Compound of Formula (II): R^1 is (Quinolin-3-yl)CH═CHCH2; R^2 is Hydrogen; R^3 is Hydrogen; R^4 is Hydrogen; R^5 is Hydrogen; R^p is Hydrogen] | >100 | 0.78 | 2 | 0.5 | 0.25 | 16 | 1 | >64 | –
3 | CCC1OC(=O)C(C)C(=O)C(C)C(OC2OC(C)CC(N(C)C)C2O)C(C)(OCC=Cc2cnc3ccccc3c2)CC(C)C2NC(=O)OC(C2C)C1(C)O (stereo not drawn) [Example 8, Compound of Formula (II): R^1 is (Quinolin-3-yl)CH═CHCH2; R^2 is Hydrogen; R^3 and R^4 together are —C(O)—; R^5 is Hydrogen; R^p is Hydrogen] | >100 | 0.39 | 1 | 0.03 | 0.03 | 16 | 2 | 128 | >128
4 | CCC1OC(=O)C(C)C(=O)C(C)C(OC2OC(C)CC(N(C)C)C2O)C(C)(OCC=Cc2cnc3ccccc3c2)CC(C)C(N)C(C)C2OC(=O)OC12C (stereo not drawn) [Example 9, Compound of Formula (II): R^1 is (Quinolin-3-yl)CH═CHCH2; R^2 is Hydrogen; R^3 is Hydrogen; R^4 and R^5 are —C(O)—; R^p is Hydrogen] | >100 | 0.2 | >128 | 2 | 1 | 32 | 32 | >128 | >128

Reference: patent US20020132782A1, “9-amino erythromycin derivatives with antibacterial activity” (priority 2001, published 2002)
